Experimental data: patent US9062124B2, “GIP-based mixed agonists for treatment of metabolic disorders and obesity” (priority 2008, dated 2015)
Where a SMILES comes first, the peptide text is derived from it. Bridges are numbered along the chain shown (N, C = ends). [ ]: non-standard residue; d: D form. Aib = CC(C)(N)C(=O)O

How the values were obtained:
Format in all cases: cell-based
glucagon receptor = target: T1, glucagon receptor (Homo sapiens, UniProt P47871); assay: cAMP synthesis functional assay (firefly luciferase reporter in HEK293 cells), glucagon receptor
T1 construct: expressed in transfected cells; host or cells: HEK293

GIP receptor = target: T2, GIP receptor (Homo sapiens, UniProt P48546); assay: cAMP synthesis functional assay (firefly luciferase reporter in HEK293 cells), GIP receptor
T2 construct: expressed in transfected cells; host or cells: HEK293
T2 sequence (P48546 22-466): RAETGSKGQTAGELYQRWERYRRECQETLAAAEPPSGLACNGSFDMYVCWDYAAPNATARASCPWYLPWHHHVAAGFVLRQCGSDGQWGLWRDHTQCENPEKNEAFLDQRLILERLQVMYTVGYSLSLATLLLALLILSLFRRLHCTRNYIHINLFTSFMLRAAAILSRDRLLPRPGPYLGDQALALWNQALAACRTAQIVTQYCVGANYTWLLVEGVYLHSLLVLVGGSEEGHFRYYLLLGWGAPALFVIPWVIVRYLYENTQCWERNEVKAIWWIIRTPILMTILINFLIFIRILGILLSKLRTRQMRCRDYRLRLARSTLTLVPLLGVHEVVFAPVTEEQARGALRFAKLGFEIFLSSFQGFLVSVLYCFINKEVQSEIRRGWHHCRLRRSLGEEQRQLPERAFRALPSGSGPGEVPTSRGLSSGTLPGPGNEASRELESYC

GLP-1 receptor = target: T3, GLP-1 receptor (Homo sapiens, UniProt P43220); assay: cAMP synthesis functional assay (firefly luciferase reporter in HEK293 cells), GLP-1 receptor
T3 construct: expressed in transfected cells; host or cells: HEK293

[1] = Table 1, relative to the native hormone of the indicated receptor
[2] = relative to the standard (Std.) EC50 of the same run

T3 sequence (P43220 24-463, species assumed): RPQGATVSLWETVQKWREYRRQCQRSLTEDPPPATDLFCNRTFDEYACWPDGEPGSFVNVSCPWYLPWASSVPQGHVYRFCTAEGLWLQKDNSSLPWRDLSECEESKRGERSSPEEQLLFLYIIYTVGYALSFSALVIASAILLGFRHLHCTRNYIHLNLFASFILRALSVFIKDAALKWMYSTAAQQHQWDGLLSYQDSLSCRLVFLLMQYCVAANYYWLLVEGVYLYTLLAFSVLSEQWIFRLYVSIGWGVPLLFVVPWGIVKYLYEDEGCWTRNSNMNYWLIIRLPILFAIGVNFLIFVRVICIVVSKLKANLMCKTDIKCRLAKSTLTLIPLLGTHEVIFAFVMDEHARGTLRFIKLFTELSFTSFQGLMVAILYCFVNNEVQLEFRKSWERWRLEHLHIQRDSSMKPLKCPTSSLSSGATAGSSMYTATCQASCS
T1 sequence (P47871 26-477): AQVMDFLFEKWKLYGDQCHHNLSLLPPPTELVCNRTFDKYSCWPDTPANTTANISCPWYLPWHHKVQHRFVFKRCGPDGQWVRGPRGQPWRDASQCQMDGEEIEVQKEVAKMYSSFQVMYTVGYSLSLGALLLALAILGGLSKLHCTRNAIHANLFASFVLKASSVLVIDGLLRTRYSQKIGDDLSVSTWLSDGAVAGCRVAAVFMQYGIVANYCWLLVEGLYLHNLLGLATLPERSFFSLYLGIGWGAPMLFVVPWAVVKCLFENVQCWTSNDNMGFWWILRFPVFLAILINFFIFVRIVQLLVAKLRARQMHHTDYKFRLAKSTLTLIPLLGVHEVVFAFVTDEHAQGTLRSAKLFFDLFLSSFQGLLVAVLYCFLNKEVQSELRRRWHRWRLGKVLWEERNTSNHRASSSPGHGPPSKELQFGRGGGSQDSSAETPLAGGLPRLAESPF

Row | SMILES | Glucagon Receptor relative activity (glucagon receptor; [1]) [%] | GIP Receptor relative activity (GIP receptor; [1]) [%] | GLP-1 Receptor relative activity (GLP-1 receptor; [1]) [%] | EC50 (GIP receptor; GIP Receptor EC50, nM, Table 1) [nM] | EC50 (glucagon receptor; Glucagon Receptor EC50, nM, Table 1) [nM] | EC50 (glucagon receptor; Glucagon Receptor EC50, cAMP luciferase reporter assay as in Example 16) [nM] | Glucagon Receptor relative activity (glucagon receptor; [2]) [%] | EC50 (GIP receptor; GIP Receptor EC50, cAMP luciferase reporter assay as in Example 16) [nM] | GIP Receptor relative activity (GIP receptor; [2]) [%] | EC50 (GLP-1 receptor; GLP-1 Receptor EC50, cAMP luciferase reporter assay as in Example 16) [nM] | GLP-1 Receptor relative activity (GLP-1 receptor; [2]) [%]
1 | CC[C@H](C)[C@H](NC(=O)[C@H](CO)NC(=O)[C@H](Cc1ccc(O)cc1)NC(=O)[C@H](CC(=O)O)NC(=O)[C@H](CO)NC(=O)[C@@H](NC(=O)[C@H](Cc1ccccc1)NC(=O)[C@@H](NC(=O)CNC(=O)[C@H](CCC(N)=O)NC(=O)C(C)(C)N)[C@@H](C)O)[C@@H](C)O)C(=O)N[C@@H](Cc1ccc(O)cc1)C(=O)N[C@@H](CC(C)C)C(=O)N[C@@H](CC(=O)O)C(=O)N[C@H]1CCC(=O)NCCCC[C@@H](C(=O)N[C@@H](CCC(=O)O)C(=O)N[C@@H](Cc2ccccc2)C(=O)N[C@H](C(=O)N[C@@H](CC(N)=O)C(=O)N[C@@H](Cc2c[nH]c3ccccc23)C(=O)N[C@@H](CC(C)C)C(=O)N[C@@H](CC(C)C)C(=O)N[C@@H](C)C(=O)NCC(N)=O)C(C)C)NC(=O)[C@H](C)NC(=O)[C@H](C)NC(=O)[C@H](CCC(N)=O)NC1=O [mt-198] (H-[Aib]QGTFTSDYSIYLDEQAAKEFVNWLLAG-NH2; lactam 15-19; N-terminus assumed) | 0.53 | 0.02 | 0.17 |  |  |  |  |  |  |  | 
2 | CC[C@H](C)[C@H](NC(=O)[C@H](CO)NC(=O)[C@H](Cc1ccc(O)cc1)NC(=O)[C@H](CC(=O)O)NC(=O)[C@H](CO)NC(=O)[C@@H](NC(=O)[C@H](Cc1ccccc1)NC(=O)[C@@H](NC(=O)CNC(=O)[C@H](CCC(N)=O)NC(=O)[C@H](CO)NC(=O)[C@@H](N)Cc1ccc(O)cc1)[C@@H](C)O)[C@@H](C)O)C(=O)N[C@@H](Cc1ccc(O)cc1)C(=O)N[C@@H](CC(C)C)C(=O)N[C@@H](CC(=O)O)C(=O)N[C@@H](CCC(=O)O)C(=O)N[C@@H](CCC(N)=O)C(=O)N[C@@H](C)C(=O)N[C@@H](C)C(=O)N[C@H]1CCCCNC(=O)CC[C@@H](C(=O)N[C@@H](Cc2c[nH]c3ccccc23)C(=O)N[C@@H](CC(C)C)C(=O)N[C@@H](CC(C)C)C(=O)N[C@@H](C)C(=O)NCC(=O)NCC(=O)N2CCC[C@H]2C(=O)N[C@@H](CO)C(=O)N[C@@H](CO)C(=O)NCC(=O)N[C@@H](C)C(=O)N2CCC[C@H]2C(=O)N2CCC[C@H]2C(=O)N2CCC[C@H]2C(=O)N[C@@H](CO)C(N)=O)NC(=O)[C@H](C(C)C)NC(=O)[C@H](Cc2ccccc2)NC(=O)[C@H](CCC(=O)O)NC1=O [mt-156] (H-YSQGTFTSDYSIYLDEQAAKEFVEWLLAGGPSSGAPPPS-NH2; lactam 20-24; N-terminus assumed) | 6.10 | 4.41 | 12.20 |  |  |  |  |  |  |  | 
3 | CC[C@H](C)[C@H](NC(=O)[C@H](Cc1ccccc1)NC(=O)[C@H](CC(=O)O)NC(=O)[C@@H]1CCCCNC(=O)CC[C@H](NC(=O)[C@H](CC(=O)O)NC(=O)[C@H](CC(C)C)NC(=O)[C@H](Cc2ccc(O)cc2)NC(=O)[C@H](CCCCN)NC(=O)[C@H](CO)NC(=O)[C@H](Cc2ccc(O)cc2)NC(=O)[C@H](CC(=O)O)NC(=O)[C@H](CO)NC(=O)[C@@H](NC(=O)[C@H](Cc2ccccc2)NC(=O)[C@@H](NC(=O)CNC(=O)[C@H](CCC(N)=O)NC(=O)[C@H](CO)NC(=O)[C@@H](N)Cc2c[nH]cn2)[C@@H](C)O)[C@@H](C)O)C(=O)N[C@@H]([C@@H](C)CC)C(=O)N[C@@H](Cc2c[nH]cn2)C(=O)N[C@@H](CCC(N)=O)C(=O)N1)C(=O)N[C@@H](C)C(=O)N[C@@H](Cc1c[nH]c2ccccc12)C(=O)N[C@@H](CC(C)C)C(=O)N[C@@H](CCSC)C(=O)N[C@@H](CC(N)=O)C(=O)NCC(=O)NCC(=O)N1CCC[C@H]1C(=O)N[C@@H](CO)C(=O)N[C@@H](CO)C(=O)NCC(=O)N[C@@H](C)C(=O)N1CCC[C@H]1C(=O)N1CCC[C@H]1C(=O)N1CCC[C@H]1C(=O)N[C@@H](CO)C(N)=O [mt-128] (H-HSQGTFTSDYSKYLDEIHQKDFIAWLMNGGPSSGAPPPS-NH2; lactam 16-20; N-terminus assumed) | 11.13 | 0.42 | 33.33 | 14.6 |  |  |  |  |  |  | 
4 | CC[C@H](C)[C@H](NC(=O)[C@H](Cc1ccccc1)NC(=O)[C@H](CCC(=O)O)NC(=O)[C@@H]1CCCCNC(=O)CC[C@H](NC(=O)[C@H](CC(=O)O)NC(=O)[C@H](CC(C)C)NC(=O)[C@H](Cc2ccc(O)cc2)NC(=O)[C@H](CCCCN)NC(=O)[C@H](CO)NC(=O)[C@H](Cc2ccc(O)cc2)NC(=O)[C@H](CC(=O)O)NC(=O)[C@H](CO)NC(=O)[C@@H](NC(=O)[C@H](Cc2ccccc2)NC(=O)[C@@H](NC(=O)CNC(=O)[C@H](CCC(N)=O)NC(=O)[C@H](CO)NC(=O)[C@@H](N)Cc2c[nH]cn2)[C@@H](C)O)[C@@H](C)CC)C(=O)N[C@@H]([C@@H](C)CC)C(=O)N[C@@H](Cc2c[nH]cn2)C(=O)N[C@@H](CCC(N)=O)C(=O)N1)C(=O)N[C@@H](C)C(=O)N[C@@H](Cc1c[nH]c2ccccc12)C(=O)N[C@@H](CC(C)C)C(=O)N[C@@H](CCSC)C(=O)N[C@@H](CC(N)=O)C(=O)N[C@H](C(N)=O)[C@@H](C)O [mt-107] (H-HSQGTFISDYSKYLDEIHQKEFIAWLMNT-NH2; lactam 16-20; N-terminus assumed) | 185.71 | 0.74 | 0.16 |  | 0.07 |  |  |  |  |  | 
5 | CC[C@H](C)[C@H](NC(=O)[C@H](CO)NC(=O)[C@H](CCCCN)NC(=O)[C@H](CC(=O)O)NC(=O)[C@H](CO)NC(=O)[C@@H](NC(=O)[C@H](Cc1ccccc1)NC(=O)[C@@H](NC(=O)CNC(=O)[C@H](CCC(=O)O)NC(=O)C(C)(C)NC(=O)[C@@H](N)Cc1ccc(O)cc1)[C@@H](C)O)[C@@H](C)O)C(=O)N[C@@H](Cc1ccc(O)cc1)C(=O)N[C@@H](CC(C)C)C(=O)N[C@@H](CC(=O)O)C(=O)N[C@@H](CCCCN)C(=O)N[C@@H](CCC(N)=O)C(=O)N[C@@H](C)C(=O)N[C@@H](C)C(=O)NC(C)(C)C(=O)N[C@@H](CCC(=O)O)C(=O)N[C@@H](Cc1ccccc1)C(=O)N[C@H](C(=O)N[C@@H](CC(N)=O)C(=O)N[C@@H](Cc1c[nH]c2ccccc12)C(=O)N[C@@H](CC(C)C)C(=O)N[C@@H](CC(C)C)C(=O)N[C@@H](C)C(=O)NCC(=O)NCC(=O)N1CCC[C@H]1C(=O)N[C@@H](CO)C(=O)N[C@@H](CO)C(=O)NCC(=O)N[C@@H](C)C(=O)N1CCC[C@H]1C(=O)N1CCC[C@H]1C(=O)N1CCC[C@H]1C(=O)N[C@@H](CO)C(N)=O)C(C)C [mt-272] (H-Y[Aib]EGTFTSDKSIYLDKQAA[Aib]EFVNWLLAGGPSSGAPPPS-NH2; N-terminus assumed) |  |  |  |  |  | 1060 | 0.02 | 0.0241 | 33.20 | 1.23 | 1.60
